≈ marks a conversion by molar mass, not a printed value.
How the values were obtained:
[1] = Determination of logD (1-octanol / phosphate buffer pH 7.4); assay type: physicochemical; conditions: 1-octanol/phosphate buffer, pH 7.4, pH 7.4, 1-octanol/phosphate buffer; read-out: Log D, pH 7.4
How it was run: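 Each phase analysed by LCMS after 1 h shaking at 800 rpm and centrifugation, room temperature. Phases were mutually saturated 1-octanol and 100 mM phosphate buffer at pH 7.4. LogD derived from the phase concentrations.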

[2] = target: KRAS G12C (GMPPNP-loaded) and cRAF (Ras-binding domain) interaction (Homo sapiens (Human), UniProt P01116, C118S/C51S/C80L/G12C); assay: Inhibition of KRAS G12C and cRAF binding (AlphaScreen); conditions: KRAS G12C loaded with GMPPNP, cRaf RBD, 2 hours preincubation; read-out: Raf-1 RBD K-Ras IC50
Chain of KRAS G12C (GMPPNP-loaded) and cRAF (Ras-binding domain) interaction (P01116 other isoform, or with tags, fused parts or gaps G12C/C51S/C80L/C118S): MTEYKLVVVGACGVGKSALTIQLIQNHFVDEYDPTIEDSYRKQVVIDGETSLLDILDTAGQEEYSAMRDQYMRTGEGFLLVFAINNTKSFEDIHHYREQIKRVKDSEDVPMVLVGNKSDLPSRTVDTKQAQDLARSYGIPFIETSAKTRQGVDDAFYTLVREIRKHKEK
How it was run: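 AlphaScreen readout (680 nm excitation, 570 nm emission) of RBD binding after a 60-90 min bead step at room temperature. This step follows 2 h compound exposure of GMPPNP-preloaded KRAS G12C in Hepes pH 7.4 buffer with MgCl2 and 10 μM GMPPNP.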

[3] = Determination of kinetic solubility (pH 7.4); assay type: physicochemical; conditions: phosphate buffer, pH 7.4, aqueous buffer, kinetic from dmso stock, 50 mM phosphate buffer pH 7.4, read-out: Ksol, pH 7.4
How it was run: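 Solubility taken from filtrate peak areas on a calibration curve (HPLC-UV, LC-MS/MS). Before filtration and centrifugation, compound was shaken for 2 h at room temperature in pH 7.4 50 mM phosphate buffer.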

[4] = target: KRAS G12C (GMPPNP-loaded) and PI3Ka (Ras-binding domain) interaction (Homo sapiens (Human), UniProt P01116, C118S/C51S/C80L/G12C); assay: Inhibition of KRAS G12C and PI3Ka binding (AlphaScreen); conditions: KRAS G12C loaded with GMPPNP, PI3Ka RBD, 2 hours preincubation; read-out: PI3K RBD K-Ras IC50
Chain of KRAS G12C (GMPPNP-loaded) and PI3Ka (Ras-binding domain) interaction (P01116 other isoform, or with tags, fused parts or gaps G12C/C51S/C80L/C118S): as above
Method: The AlphaScreen technology was used to determine IC50S for compound inhibition of KRAS G12C (present as the Cys-light (C51S, C80L and C118S), truncated version comprising amino acids 1-169) and PI3Ka interaction. Compounds were diluted in 100% DMSO and each compound concentration was spotted at 200 nl/well onto low volume, white 384 well plates. The KRAS G12C contained a biotin-AviTag and the PI3Ka, as Ras-binding domain (amino acids 157-300, RBD), was His-tagged. KRAS G12C was preloaded with the GTP analogue Guanosine 5′-[β,γ-imido]triphosphate (GMPPNP). The KRAS G12C was diluted in 25 mM Hepes, pH 7.4, 150 mM NaCl, 5 mM MgCl2, 0.01% TritonX-100 and 10 μM GMPPNP and added at 10 ul/well to compound-spotted plates resulting in a DMSO concentration of 2%. Plates were incubated for 2 hours. A mixture of RBD and the AlphaScreen streptavidin donor and nickel chelate acceptor beads diluted in 25 mM Hepes, pH 7.4, 150 mM NaCl, 5 mM MgCl2, 0.01% TritonX-100 and 2% DMSO was then added at 10 ul/well and incubated for 60-90 minutes before the samples were read for emission at 570 nm after excitation of the donor beads at 680 nm. All incubations were performed at room temperature. The final top compound concentration was 50 μM with 1:3 titrations for 10-point dose response curves. Final assay conditions were 1.5 nM KRAS G12C, 100 nM RBD, 1.25 ug/ml of AlphaScreen donor beads and 10 μg/ml AlphaLISA acceptor beads. IC50s were determined using nonlinear regression fit of [inhibitor] vs. response (4 parameters). […]

SMILES	logD [1]	IC50 [2]	solubility kinetic at 2 h [3]	IC50 [4]
CN1CCC1/C=C/C(=O)N1CCN(c2nc(OC[C@@]34CCCN3C[C@H](F)C4)nc3c(F)c(-c4cccc5ccc(F)c(Cl)c45)ncc23)C[C@@H]1CC#N (some centres unmarked) [Compound 54]	2.59	< 0.01 µM	0.135 mg/mL (≈ 185 µM)	< 0.01 µM
CCO[C@H]1CCN(C/C=C/C(=O)N2CCN(c3nc(OC[C@@]45CCCN4C[C@H](F)C5)nc4c(F)c(-c5cccc6cccc(Cl)c56)ncc34)C[C@@H]2CC#N)C1 [Compound 91, 2-((S)-4-(7-(8-chloronaphthalen-1-yl)-8-fluoro-2-(((2R,7aS)-2-fluorohexahydro-1H-pyrrolizin-7a-yl)methoxy)pyrido[4,3-d]pyrimidin-4-yl)-1-((E)-4-((S)-3-ethoxypyrrolidin-1-yl)but-2-enoyl)piperazin-2-yl)acetonitrile]	1.83	< 0.01 µM	0.11 mg/mL (≈ 143 µM)	< 0.01 µM
N#CC[C@H]1CN(c2nc(OC[C@@]34CCCN3C[C@H](F)C4)nc3c(F)c(-c4cccc5ccc(F)c(F)c45)ncc23)CCN1C(=O)/C=C/CN1[C@@H]2CC[C@H]1COC2 [Compound 93, 2-((S)-1-((E)-4-((1R,5S)-3-oxa-8-azabicyclo[3.2.1]octan-8-yl)but-2-enoyl)-4-(7-(7,8-difluoronaphthalen-1-yl)-8-fluoro-2-(((2R,7aS)-2-fluorotetrahydro-1H-pyrrolizin-7a(5H)-yl)methoxy)pyrido[4,3-d]pyrimidin-4-yl)piperazin-2-yl)acetonitrile]	3.07	< 0.01 µM	0.0724 mg/mL (≈ 94 µM)	< 0.01 µM
N#CC[C@H]1CN(c2nc(OC[C@@]34CCCN3C[C@H](F)C4)nc3c(F)c(-c4cccc5cccc(F)c45)ncc23)CCN1C(=O)/C=C/CN1[C@@H]2CC[C@H]1COC2 [Compound 94, 2-((S)-1-((E)-4-((1R,5S)-3-oxa-8-azabicyclo[3.2.1]octan-8-yl)but-2-enoyl)-4-(8-fluoro-7-(8-fluoronaphthalen-1-yl)-2-(((2R,7aS)-2-fluorotetrahydro-1H-pyrrolizin-7a(5H)-yl)methoxy)pyrido[4,3-d]pyrimidin-4-yl)piperazin-2-yl)acetonitrile]	3.11	< 0.01 µM	0.0902 mg/mL (≈ 120 µM)	< 0.01 µM
N#CC[C@H]1CN(c2nc(OC[C@@]34CCCN3C[C@H](F)C4)nc3c(F)c(-c4cccc5cccc(Cl)c45)ncc23)CCN1C(=O)/C=C/CN1CC[C@H](F)C1 [Compound 95, 2-((S)-4-(7-(8-chloronaphthalen-1-yl)-8-fluoro-2-(((2R,7aS)-2-fluorohexahydro-1H-pyrrolizin-7a-yl)methoxy)pyrido[4,3-d]pyrimidin-4-yl)-1-((E)-4-((S)-3-fluoropyrrolidin-1-yl)but-2-enoyl)piperazin-2-yl)acetonitrile]	1.63	< 0.01 µM	0.0736 mg/mL (≈ 98.7 µM)	< 0.01 µM
Cc1cc(/C=C/C(=O)N2CCN(c3nc(OC[C@@]45CCCN4C[C@H](F)C5)nc4c(F)c(-c5cccc(Cl)c5C5CC5)ncc34)C[C@@H]2CC#N)nc(C)n1 [Compound 102, 2-((S)-4-(7-(3-chloro-2-cyclopropylphenyl)-8-fluoro-2-(((2R,7aS)-2-fluorotetrahydro-1H-pyrrolizin-7a(5H)-yl)methoxy)pyrido[4,3-d]pyrimidin-4-yl)-1-((E)-3-(2,6-dimethylpyrimidin-4-yl)acryloyl)piperazin-2-yl)acetonitrile]	3.98	< 0.01 µM	0.012 mg/mL (≈ 16.2 µM)	< 0.01 µM
N#CC[C@H]1CN(c2nc(OC[C@@]34CCCN3C[C@H](F)C4)nc3c(F)c(-c4cccc(Cl)c4C(F)(F)F)ncc23)CCN1C(=O)/C=C/CN1[C@@H]2CC[C@H]1COC2 [Compound 111, 2-((S)-1-((E)-4-((1R,5S)-3-oxa-8-azabicyclo[3.2.1]octan-8-yl)but-2-enoyl)-4-(7-(3-chloro-2-(trifluoromethyl)phenyl)-8-fluoro-2-(((2R,7aS)-2-fluorotetrahydro-1H-pyrrolizin-7a(5H)-yl)methoxy)pyrido[4,3-d]pyrimidin-4-yl)piperazin-2-yl)acetonitrile]	3.23	< 0.01 µM	0.133 mg/mL (≈ 169 µM)	< 0.01 µM

Next, values leading:

logD [1]	IC50 [2]	solubility kinetic at 2 h [3]	IC50 [4]	SMILES
2.82	< 0.01 µM	0.111 mg/mL (≈ 146 µM)	< 0.01 µM	N#CC[C@H]1CN(c2nc(OC[C@@]34CCCN3C[C@H](F)C4)nc3c(F)c(-c4cccc5ccc(F)c(Cl)c45)ncc23)CCN1C(=O)/C=C/CN1CCOCC1 [Compound 53]
1.53	0.01 to 0.1 µM	0.128 mg/mL (≈ 169 µM)	0.01 to 0.1 µM	Cc1cc(N)nc(-c2ncc3c(N4CCN(C(=O)/C=C/CN5CCOCC5)[C@@H](CC#N)C4)nc(OC[C@@]45CCCN4C[C@H](F)C5)nc3c2F)c1C(F)(F)F [Compound 55]
3.35	< 0.01 µM	0.104 mg/mL (≈ 135 µM)	< 0.01 µM	CCO[C@@H]1CCN(C/C=C/C(=O)N2CCN(c3nc(OC[C@@]45CCCN4C[C@H](F)C5)nc4c(F)c(-c5cccc6cccc(Cl)c56)ncc34)C[C@@H]2CC#N)C1 [Compound 92, 2-((S)-4-(7-(8-chloronaphthalen-1-yl)-8-fluoro-2-(((2R,7aS)-2-fluorohexahydro-1H-pyrrolizin-7a-yl)methoxy)pyrido[4,3-d]pyrimidin-4-yl)-1-((E)-4-((R)-3-ethoxypyrrolidin-1-yl)but-2-enoyl)piperazin-2-yl)acetonitrile]
2.82	< 0.01 µM	0.0644 mg/mL (≈ 86.5 µM)	< 0.01 µM	N#CC[C@H]1CN(c2nc(OC[C@@]34CCCN3C[C@H](F)C4)nc3c(F)c(-c4cccc5cccc(Cl)c45)ncc23)CCN1C(=O)/C=C/CN1CC[C@@H](F)C1 [Compound 96, 2-((S)-4-(7-(8-chloronaphthalen-1-yl)-8-fluoro-2-(((2R,7aS)-2-fluorohexahydro-1H-pyrrolizin-7a-yl)methoxy)pyrido[4,3-d]pyrimidin-4-yl)-1-((E)-4-((R)-3-fluoropyrrolidin-1-yl)but-2-enoyl)piperazin-2-yl)acetonitrile]
3.32	< 0.01 µM	0.00149 mg/mL (≈ 1.97 µM)	< 0.01 µM	C#Cc1c(F)ccc2cccc(-c3ncc4c(N5CCN(C(=O)/C=C/c6cc(C)nc(C)n6)[C@@H](CC#N)C5)nc(OC[C@@]56CCCN5C[C@H](F)C6)nc4c3F)c12 [Compound 101, 2-((S)-1-((E)-3-(2,6-dimethylpyrimidin-4-yl)acryloyl)-4-(7-(8-ethynyl-7-fluoronaphthalen-1-yl)-8-fluoro-2-(((2R,7aS)-2-fluorotetrahydro-1H-pyrrolizin-7a(5H)-yl)methoxy)pyrido[4,3-d]pyrimidin-4-yl)piperazin-2-yl)acetonitrile]
3.29	< 0.01 µM	0.01 mg/mL (≈ 13.5 µM)	< 0.01 µM	C#Cc1c(F)ccc2cccc(-c3ncc4c(N5CCN(C(=O)/C=C/c6ccnc(C)n6)[C@@H](CC#N)C5)nc(OC[C@@]56CCCN5C[C@H](F)C6)nc4c3F)c12 [Compound 103, 2-((S)-4-(7-(8-ethynyl-7-fluoronaphthalen-1-yl)-8-fluoro-2-(((2R,7aS)-2-fluorotetrahydro-1H-pyrrolizin-7a(5H)-yl)methoxy)pyrido[4,3-d]pyrimidin-4-yl)-1-((E)-3-(2-methylpyrimidin-4-yl)acryloyl)piperazin-2-yl)acetonitrile]
2.84	< 0.01 µM	0.124 mg/mL (≈ 160 µM)	< 0.01 µM	N#CC[C@H]1CN(c2nc(OC[C@@]34CCCN3C[C@H](F)C4)nc3c(F)c(-c4cccc(Cl)c4C(F)(F)F)ncc23)CCN1C(=O)/C=C/CN1CCCOCC1 [Compound 113, 2-((S)-1-((E)-4-(1,4-oxazepan-4-yl)but-2-enoyl)-4-(7-(3-chloro-2-(trifluoromethyl)phenyl)-8-fluoro-2-(((2R,7aS)-2-fluorotetrahydro-1H-pyrrolizin-7a(5H)-yl)methoxy)pyrido[4,3-d]pyrimidin-4-yl)piperazin-2-yl)acetonitrile]

From patent US20250129103A1, “METHODS FOR TREATMENT OF CANCER” (Frontier Medicines Corporation, priority 2022, published 2025)
